Experimental data published in ChEMBL document CHEMBL5126570, “Synthesis, in vitro, in silico and in vivo hypoglycemic and lipid-lowering effects of 4-benzyloxy-5-benzylidene-1,3-thiazolidine-2,4-diones mediated by dual PPAR α/γ modulation” (Bioorg Med Chem Lett, 2022).
The source made the active and inactive calls. The calls are words filed in the database; no cut-off is given here.

What was measured:
3T3-L1 [1] = assay: Cytotoxicity against adipocyte differentiated mouse 3T3-L1 cells at 100 uM by MTT assay; type: toxicity, cell-based; settings: 3t3-l1, 100 µM
3T3-L1 [2] = assay: Upregulation of GLUT-4 mRNA expression in adipocyte differentiated mouse 3T3-L1 cells at 10 uM measured after 24 hrs; type: functional, cell-based
Mus musculus [3] = assay: Antidiabetic activity in nicotinamide and streptozotocin induced hyperglycemic mouse model assessed as reduction in triglyceride level at 100 mg/kg, IG administered as single dose and measured on day 1 (reference value: 88 +/- 6 mg/dl); type: functional
Mus musculus [4] = assay: Antidiabetic activity in nicotinamide and streptozotocin induced hyperglycemic mouse model assessed as reduction in triglyceride level at 100 mg/kg, IG administered as single dose and measured on day 0 (reference value: 92 +/- 10 mg/dl); type: functional
[5] = target: T1, Peroxisome proliferator-activated receptor gamma (Homo sapiens) (UniProt P37231); assay: Binding affinity to PPARgamma (unknown origin) assessed as change in binding free energy; settings: filed as modulator
T1 sequence (whole entry): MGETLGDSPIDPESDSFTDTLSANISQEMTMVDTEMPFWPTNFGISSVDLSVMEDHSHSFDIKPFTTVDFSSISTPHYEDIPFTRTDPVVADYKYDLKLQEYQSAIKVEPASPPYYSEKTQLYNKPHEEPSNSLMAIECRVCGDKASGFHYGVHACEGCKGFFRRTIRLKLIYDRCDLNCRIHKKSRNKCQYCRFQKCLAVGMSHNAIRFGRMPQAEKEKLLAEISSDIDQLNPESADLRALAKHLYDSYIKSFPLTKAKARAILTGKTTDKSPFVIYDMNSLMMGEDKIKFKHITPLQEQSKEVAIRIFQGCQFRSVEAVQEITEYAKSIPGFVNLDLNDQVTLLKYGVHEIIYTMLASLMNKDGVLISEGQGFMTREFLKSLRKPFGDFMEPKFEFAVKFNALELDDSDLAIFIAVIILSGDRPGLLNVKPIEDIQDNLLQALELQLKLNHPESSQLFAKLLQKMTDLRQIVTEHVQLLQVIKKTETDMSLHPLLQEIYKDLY

[6] = Lipophilicity, logP of compound; type: physicochemical; settings: octanol/water
3T3-L1 [7] = assay: Upregulation of PPARalpha mRNA expression in adipocyte differentiated mouse 3T3-L1 cells assessed as fold increase in PPARalpha expression at 10 uM measured after 24 hrs; type: functional
Mus musculus [8] = assay: Antidiabetic activity in nicotinamide and streptozotocin induced hyperglycemic mouse model assessed as reduction in blood glucose at 100 mg/kg, IG administered as single dose and measured after 7 hrs; type: functional; set-up: scale not given: the % may be the effect or the level left
Mus musculus [9] = assay: Antidiabetic activity in nicotinamide and streptozotocin induced hyperglycemic mouse model assessed as reduction in triglyceride level at 100 mg/kg, IG administered as single dose and measured on day 3 (reference value: 95 +/- 5 mg/dl); type: functional
Mus musculus [10] = assay: Antidiabetic activity in nicotinamide and streptozotocin induced hyperglycemic mouse model assessed as reduction in triglyceride level at 100 mg/kg, IG administered as single dose and measured on day 5 (reference value: 93 +/- 10 mg/dl); type: functional
3T3-L1 [11] = assay: Upregulation of PPARgamma mRNA expression in adipocyte differentiated mouse 3T3-L1 cells assessed as fold increase in PPARgamma expression at 10 uM measured after 24 hrs; type: functional
3T3-L1 [12] = assay: Upregulation of PPARgamma mRNA expression in adipocyte differentiated mouse 3T3-L1 cells at 10 uM measured after 24 hrs; type: functional, cell-based

Row | SMILES | Activity (3T3-L1 [1]) | Activity (3T3-L1 [2]) | Activity (Mus musculus [3]) | Activity (Mus musculus [4]) | deltaG [5] | logP [6] | Activity (Mus musculus [9]) | Activity (Mus musculus [10]) | further results
1 | COc1cc(/C=C2\SC(=O)NC2=O)ccc1OCc1ccc(C)cc1 | Non-Toxic |  |  |  |  |  |  |  | 
2 | COc1cc(/C=C2\SC(=O)NC2=O)ccc1OCc1ccc(-c2ccccc2C#N)cc1 | Non-Toxic | Active |  |  |  |  |  |  | 
3 | Cc1ccc(COc2ccc(/C=C3\SC(O)=NC3=O)cc2)cc1 | Non-Toxic | Active | 88 mg/dL | 93 mg/dL | -7.72 | 3.33 | 74 mg/dL | 70 mg/dL | fold change (FC) (3T3-L1 [7]): 2; Activity (Mus musculus [8]): 82%; fold change (FC) (3T3-L1 [11]): 5
4 | O=C1NC(=O)/C(=C/c2ccc(OCc3ccccc3)cc2)S1 | Non-Toxic |  |  |  |  | 3 |  |  | 
5 | COc1cc(/C=C2\SC(=O)NC2=O)ccc1OCc1ccccc1C#N | Non-Toxic |  |  |  |  |  |  |  | 
6 | O=C1N=C(O)S/C1=C\c1ccc(OCc2ccccc2)cc1 |  | Active | 70 mg/dL | 97 mg/dL | -7.43 |  | 69 mg/dL | 62 mg/dL | fold change (FC) (3T3-L1 [7]): 2; Activity (Mus musculus [8]): 38%; Activity (3T3-L1 [12]): Active
7 | COc1cc(/C=C2\SC(=O)NC2=O)ccc1OCc1ccc(Cl)cc1 | Non-Toxic | Active |  |  |  |  |  |  | Activity (3T3-L1 [12]): Active
8 | O=C1NC(=O)/C(=C/c2ccc(OCc3ccc(Cl)cc3)cc2)S1 | Non-Toxic | Active | 75 mg/dL | 90 mg/dL | -7.69 | 3.53 | 77 mg/dL | 75 mg/dL | fold change (FC) (3T3-L1 [7]): 2; Activity (Mus musculus [8]): -68%; fold change (FC) (3T3-L1 [11]): 5
9 | N#Cc1ccccc1-c1ccc(COc2ccc(/C=C3\SC(=O)NC3=O)cc2)cc1 |  |  |  |  | -7.84 | 4.94 |  |  | 
10 | COc1cc(/C=C2\SC(=O)NC2=O)ccc1OCc1ccccc1 | Non-Toxic | Active |  |  |  |  |  |  | 
11 | CC(C)OC(=O)C(C)(C)Oc1ccc(C(=O)c2ccc(Cl)cc2)cc1 [FENOFIBRATE] |  |  | 65 mg/dL | 88 mg/dL |  |  | 62 mg/dL | 58 mg/dL | 
12 | N#Cc1ccccc1COc1ccc(/C=C2\SC(=O)NC2=O)cc1 | Non-Toxic |  |  |  |  |  |  |  | Activity (3T3-L1 [12]): Active
